Our source for the EC50 values is patent US10150758B2, “PRMT5 inhibitors and uses thereof” (Epizyme, Inc., priority 2012, dated 2018).

Bounds are passed on as bounds.

Assay [1] concerns symmetric di-methyl arginine in Z-138 cells. As to the kind of experiment: Z-138 Methylation Assay (In Cell Western for symmetric di-methyl arginine and DNA content). Type of assay: cell-based. The conditions noted are these: Homo sapiens, 96 hours incubation, read-out: ICW EC50. The text has this:
[formula] [formula] Where top and bottom are the normally allowed to float, but may be fixed at 100 or 0 respectively in a 3-parameter fit. The Hill Coefficient normally allowed to float but may also be fixed at 1 in a 3-parameter fit. Y is the % inhibition and X is the compound concentration. Z-138 Methylation Assay
Z-138 suspension cells were purchased from ATCC (American Type Culture Collection, Manassas, Va.). RPMI/Glutamax medium, penicillin-streptomycin, heat inactivated fetal bovine serum, and D-PBS were purchased from Life Technologies, Grand Island, N.Y., USA. Odyssey blocking buffer, 800CW goat anti-rabbit IgG (H+L) antibody, and Licor Odyssey infrared scanner were purchased from Licor Biosciences, Lincoln, Nebr., USA. Symmetric di-methyl arginine antibody was purchased from EMD Millipore, Billerica, Mass., USA. 16% Paraformaldehyde was purchased from Electron Microscopy Sciences, Hatfield, Pa., USA.
Z-138 suspension cells were maintained in growth medium (RPMI 1640 supplemented with 10% v/v heat inactivated fetal bovine serum and 100 units/mL penicillin-streptomycin) and cultured at 37° C. under 5% CO2.
Cell Treatment, in Cell Western (ICW) for Detection of Symmetric Di-Methyl Arginine and DNA Content.
Z-138 cells were seeded in assay medium at a concentration of 50,000 cells per mL to a 384-well cell culture plate with 50 μL per well. Compound (100 nL) from 384 well source plates was added directly to 384 well cell plate. Plates were incubated at 37° C., 5% CO2 for 96 hours. After four days of incubation, 40 μL of cells from incubated plates were added to poly-D-lysine coated 384 well culture plates (BD Biosciences 356697). Plates were incubated at room temperature for 30 minutes then incubated at 37° C., 5% CO2 for 5 hours. After the incubation, 40 μL per well of 8% paraformaldehyde in PBS (16% paraformaldahyde was diluted to 8% in PBS) was added to each plate and incubated for 30 minutes. Plates were transferred to a Biotek 405 plate washer and washed 5 times with 100 μL per well of wash buffer (1×PBS with 0.1% Triton X-100 (v/v)). Next 30 μL per well of Odyssey blocking buffer were added to each plate and incubated 1 hour at room temperature. Blocking buffer was removed and 20 μL per well of primary antibody was added (symmetric di-methyl arginine diluted 1:100 in Odyssey buffer with 0.1% Tween 20 (v/v)) and plates were incubated overnight (16 hours) at 4° C. Plates were washed 5 times with 100 μL per well of wash buffer. Next 20 μL per well of secondary antibody was added (1:200 800CW goat anti-rabbit IgG (H+L) antibody, 1:1000 DRAQ5 (Biostatus limited) in Odyssey buffer with 0.1% Tween 20 (v/v)) and incubated for 1 hour at room temperature. The plates were washed 5 times with 100 μL per well wash buffer then 1 time with 100 μL per well of water. Plates were allowed to dry at room temperature then imaged on the Licor Odyssey machine which measures integrated intensity at 700 nm and 800 nm wavelengths. Both 700 and 800 channels were scanned.
First, the ratio for each well was determined by:
Each plate included fourteen control wells of DMSO only treatment (minimum inhibition) as well as fourteen control wells for maximum inhibition treated with 3 μM of a reference compound (Background wells). The average of the ratio values for each control type was calculated and used to determine the percent inhibition for each test well in the plate. Reference compound was serially diluted three-fold in DMSO for a total of nine test concentrations, beginning at 3 μM. Percent inhibition was determined and IC50 curves were generated using triplicate wells per concentration of compound.

In another assay the test system is Z-138 cells. Kind of assay: Z-138 Proliferation Assay (Cell Titer Glo). Type of assay: cell-based. The conditions noted are these: Homo sapiens, 120 h, 5 days, top concentration 20 μM. From the text: [formula] Z-138 Proliferation Assay
Z-138 suspension cells were purchased from ATCC (American Type Culture Collection, Manassas, Va.). RPMI/Glutamax medium, penicillin-streptomycin, heat inactivated fetal bovine serum were purchased from Life Technologies, Grand Island, N.Y., USA. V-bottom polypropylene 384-well plates were purchased from Greiner Bio-One, Monroe, N.C., USA. Cell culture 384-well white opaque plates were purchased from Perkin Elmer, Waltham, Mass., USA. Cell-Titer Glo® was purchased from Promega Corporation, Madison, Wis., USA. SpectraMax M5 plate reader was purchased from Molecular Devices LLC, Sunnyvale, Calif., USA.
Z-138 suspension cells were maintained in growth medium (RPMI 1640 supplemented with 10% v/v heat inactivated fetal bovine serum and cultured at 37° C. under 5% CO2. Under assay conditions, cells were incubated in assay medium (RPMI 1640 supplemented with 10% v/v heat inactivated fetal bovine serum and 100 units/mL penicillin-streptomycin) at 37° C. under 5% CO2.
For the assessment of the effect of compounds on the proliferation of the Z-138 cell line, exponentially growing cells were plated in 384-well white opaque plates at a density of 10,000 cells/ml in a final volume of 50 μl of assay medium. A compound source plate was prepared by performing triplicate nine-point 3-fold serial dilutions in DMSO, beginning at 10 mM (final top concentration of compound in the assay was 20 μM and the DMSO was 0.2%). A 100 nL aliquot from the compound stock plate was added to its respective well in the cell plate. […] After addition of compounds, assay plates were incubated for 5 days at 37° C., 5% CO2, relative humidity >90%. Cell viability was measured by quantitation of ATP present in the cell cultures, adding 35 μl of Cell Titer Glo® reagent to the cell plates. Luminescence was read in the SpectraMax M5 microplate reader. The concentration of compound inhibiting cell viability by 50% was determined using a 4-parametric fit of the normalized dose response curves.
In general terms: In ATP-based viability assays light output follows the ATP content of the culture.

For orientation: EC50 means the concentration needed to bring the measured effect to its halfway point. For `O=C1CN(c2cccc3cccnc23)CCN1CC(O)CN1CCc2ccccc2C1` (stereo not shown) [Compound 4, 1-(3-(3,4-dihydroisoquinolin-2(1H)-yl)-2-hydroxypropyl)-4-(quinolin-8-yl)piperazin-2-one], the half-maximal effective concentration (EC50) in assay [1] was in the range of 0.101 to 1 µM; in the assay on Z-138 cells it was 1 to 10 µM.

With `O=C1CN(c2cccc(F)c2)CCN1CC(O)CN1CCc2ccccc2C1` (stereo not shown) [Compound 6], the concentration giving a half-maximal response (EC50) was 0.101 to 1 µM in assay [1] and above 20 µM in the assay with Z-138 cells.

In the case of `O=C1Cc2ccccc2N1CC(O)CN1CCc2ccccc2C1` (stereo not shown) [Compound 1, 1-(3-(3,4-dihydroisoquinolin-2(1H)-yl)-2-hydroxypropyl)indolin-2-one], the concentration for a half-maximal effect (EC50) in assay [1] was 0.101 to 1 µM; in the assay with Z-138 cells, above 20 µM.

As to `O=c1cc(Nc2ccccc2)ccn1C[C@H](O)CN1CCc2ccccc2C1` [Compound 19, (R)-1-(3-(3,4-dihydroisoquinolin-2(1H)-yl)-2-hydroxypropyl)-4-(phenylamino)pyridin-2(1H)-one], the results for the concentration giving a half-maximal response (EC50) (in assay [1]; in the assay with Z-138 cells) were 0.101 to 1 µM and above 20 µM, respectively.

With `O=C1CN(c2ccccc2Cl)CCN1CC(O)CN1CCc2ccccc2C1` (stereo not shown) [Compound 9], the results for the EC50 (in assay [1]; in the assay on Z-138 cells) were 0.101 to 1 µM and 10 to 50 µM, respectively.

`O=C1CN(c2ccc(Cl)cc2)CCN1CC(O)CN1CCc2ccccc2C1` (stereo not shown) [Compound 7, 4-(4-chlorophenyl)-1-(3-(3,4-dihydroisoquinolin-2(1H)-yl)-2-hydroxypropyl)piperazin-2-one]: the half-maximal effective concentration (EC50) fell in the range of 0.101 to 1 µM in assay [1] and 10 to 50 µM in the assay on Z-138 cells.

Regarding `O=C1CN(c2cccc(N3CCOCC3)c2)CCN1CC(O)CN1CCc2ccccc2C1` (stereo not shown) [Compound 12, 1-(3-(3,4-dihydroisoquinolin-2(1H)-yl)-2-hydroxypropyl)-4-(3-morpholinophenyl)piperazin-2-one], the 50% effective concentration (EC50) was below 0.1 µM in assay [1] and 1 to 10 µM in the assay on Z-138 cells.

With `CN(C)c1ccccc1N1CCN(C[C@H](O)CN2CCc3ccccc3C2)C(=O)C1` [Compound 29], the EC50 in assay [1] fell in the range of 0.101 to 1 µM; in the assay with Z-138 cells it was 10 to 50 µM.

For the compound `Cc1ccc(N2CCN(CC(O)CN3CCc4ccccc4C3)C(=O)C2)cc1` (stereo not shown) [Compound 15, 1-(3-(3,4-dihydroisoquinolin-2(1H)-yl)-2-hydroxypropyl)-4-(p-tolyl)piperazin-2-one], the EC50 in assay [1] was 0.101 to 1 µM; in the assay on Z-138 cells, above 20 µM.

Take `O=C1CN(c2cncc(N3CCOCC3)c2)CCN1CC(O)CN1CCc2ccccc2C1` (stereo not shown) [Compound 8, 1-(3-(3,4-dihydroisoquinolin-2(1H)-yl)-2-hydroxypropyl)-4-(5-morpholinopyridin-3-yl)piperazin-2-one]: the results for the EC50 (in assay [1]; with Z-138 cells) were 0.101 to 1 µM and 1 to 10 µM, respectively.

As to `O=C1COc2ccccc2N1CC(O)CN1CCc2ccccc2C1` (stereo not shown) [Compound 31, 4-(3-(3,4-dihydroisoquinolin-2(1H)-yl)-2-hydroxypropyl)-2H-benzo[b][1,4]oxazin-3(4H)-one], the EC50 in assay [1] was 0.101 to 1 µM; in the assay on Z-138 cells, above 20 µM.
